Test results taken from patent EP1206482B1, “METHOD FOR COUPLING, IN SOLUTION, A PEPTIDE WITH AT LEAST ANOTHER COMPOUND AND USES THEREOF” (INSTITUT PASTEUR DE LILLE, priority 1999, dated 2001).
Starred links: 1 amine or outer side, 2 acyl side, 3 side chain; linkers in the order of their positions; H or OH if unused. Non-standard residues stand in square brackets, D forms with d. No end group written: not given here. Hydrazinoacetyl = O=C(CNN[*:1])[*:2]

Tested on: molécules de classe II du CMH
Assay: Quantification of surface expression of MHC class II molecules by flow cytometry (anti-HLA DR-FITC) after 24 h stimulation of cells with peptides or lipopeptides
Type: cell-based, humaine
Conditions: for Moyenne: mean fluorescence of treated COLO 205 cells; for Rapport: ratio of mean fluorescence of treated to untreated COLO 205 cells
Procedure: Les cellules COLO 205 (lignée cellulaire humaine issue d'un carcinome de colon) proviennent de la banque de cellules ATCC (American Type Culture Collection). Elles sont cultivées en milieu RPMI 1640 (Gibco BRL, Courbevoie, France) avec 10% de sérum de veau foetal (SVF) et 5 mM de pyruvate de sodium, et incubées à 37°C en présence de 5% de CO2. Les cellules sont stimulées pendant 24 heures avec différentes concentrations (35, 50 ou 65 µM) de peptides ou de lipopeptides. Les cellules sont ensuite marquées pendant 1 heure à 4°C avec 10 µl d'anticorps de souris anti-HLA DR de classe-II, couplé à la FITC (clone TAL, 1B5, Cymbus Biotechnology Ltd, Hants, Grande-Bretagne) dans 10% de SVF/PBS, puis lavées 3 fois par du SVF/PBS.
L'expression de surface des molécules de classe II du CMH est analysée par cytométrie de flux sur un cytomètre Coulter EPICS II, à raison de 10 000 évènements par échantillon. L'intensité de fluorescence observée est directement proportionnelle à la quantité de molécules de classe II du CMH présente à la surface des cellules. La moyenne de fluorescence observée pour les cellules non traitées et pour les cellules traitées (colonne « Moyenne» dans le tableau II) permet de calculer un rapport entre la moyenne de fluorescence des cellules traitées et la moyenne de fluorescence des cellules non traitées (colonne « Rapport » dans le tableau II).

Which results are given for “H2N-NH-CH2CO-PSRENQNAVKIQKLSVVLRREQKHRVERLAFRNQSLPF-NH2 ([Hydrazinoacetyl]PSRENQNAVKIQKLSVVLRREQKHRVERLAFRNQSLPF-NH2; N-terminus assumed; SMILES CC[C@H](C)[C@H](NC(=O)[C@H](CCCCN)NC(=O)[C@@H](NC(=O)[C@H](C)NC(=O)[C@H](CC(N)=O)NC(=O)[C@H](CCC(N)=O)NC(=O)[C@H](CC(N)=O)NC(=O)[C@H](CCC(=O)O)NC(=O)[C@H](CCCNC(=N)N)NC(=O)[C@H](CO)NC(=O)[C@@H]1CCCN1C(=O)CNN)C(C)C)C(=O)N[C@@H](CCC(N)=O)C(=O)N[C@@H](CCCCN)C(=O)N[C@@H](CC(C)C)C(=O)N[C@@H](CO)C(=O)N[C@H](C(=O)N[C@H](C(=O)N[C@@H](CC(C)C)C(=O)N[C@@H](CCCNC(=N)N)C(=O)N[C@@H](CCCNC(=N)N)C(=O)N[C@@H](CCC(=O)O)C(=O)N[C@@H](CCC(N)=O)C(=O)N[C@@H](CCCCN)C(=O)N[C@@H](Cc1c[nH]cn1)C(=O)N[C@@H](CCCNC(=N)N)C(=O)N[C@H](C(=O)N[C@@H](CCC(=O)O)C(=O)N[C@@H](CCCNC(=N)N)C(=O)N[C@@H](CC(C)C)C(=O)N[C@@H](C)C(=O)N[C@@H](Cc1ccccc1)C(=O)N[C@@H](CCCNC(=N)N)C(=O)N[C@@H](CC(N)=O)C(=O)N[C@@H](CCC(N)=O)C(=O)N[C@@H](CO)C(=O)N[C@@H](CC(C)C)C(=O)N1CCC[C@H]1C(=O)N[C@@H](Cc1ccccc1)C(N)=O)C(C)C)C(C)C)C(C)C) [peptide 22Sc]”?
Moyenne (35 µM): 1,36; Moyenne (50 µM): 1,60; Moyenne (65 µM): 1,67; Rapport (35 µM): 1,8; Rapport (50 µM): 2,18; Rapport (65 µM): 2,27

How did the Moyenne (35 µM) turn out when “palm-NH-NH-CH2CO-PSRENQNAVKIQKLSVVLRREQKHR-VERLAFRNQSLPF-NH2 [peptide 23Sc]” was run?
Its Moyenne is 4,72.

And the Moyenne (50 µM)?
The Moyenne was 4,51.

And the Moyenne (65 µM)?
The Moyenne was 5,55.

And the Rapport (35 µM)?
The Rapport was 9,16.

What about the Rapport (50 µM) of the same substance?
The Rapport was 6,15.

What about the Rapport (65 µM) of the same substance?
The Rapport was 7,5.
